“Also recorded” adds a separate entry of the source.
Tested on: HEK293-hL1 cells
Assay: Haptotactic cell migration assay in Transwell chambers, HEK293-hL1 cells
Format: cell-based, human
Conditions: fibronectin, 24 h after transient transfection (FIG. 11)
Experimental: (C) Inhibition of haptotactic cell migration in the absence or presence of the indicated mAbs to integrins at a final concentration of 10 μg/ml. FN at 10 μg/ml or BSA for control were coated onto the backside of Transwell chambers. Cells were seeded into the top chamber and allowed to transmigrate for 16 hr at 37° C. The antibody was present during the assay time. Each determination was done in quadruplicate and transmigrated cells were stained from the back of the filter. The dye was eluted from the filter and measured at 595 nm. The amount of dye is proportional to the number of transmigrated cells. Values for the migration on BSA were below 0.25 O.D. units for each cell type.
The haptotactic cell migration assay on fibronectin, laminin or BSA was performed in Transwell chambers (Costar, 6.5 mm diameter, 5 um pore size) and was described in detail elsewhere (Mechtersheimer et al., supra). Transmigrated cells were quantified by staining of the transwell membranes with cristalviolet solution as described (Mechtersheimer at al., supra). The eluted dye was measured at 595 nm in an ELISA reader.

COc1cccc(-c2cc(=O)c3ccccc3o2)c1N [PD59098]
suppression of enhanced (L1-dependent) migration of HEK-293-hL1 wild type cells: same effect; also recorded: could block the L1-dependent migration
